Consider three compounds from patent US5312838A, “β-alanineamide aryl/alkylsulfide/sulfonyl-terminated amino-diol compounds for treatment of hypertension” (G. D. Searle & Co., priority 1992, dated 1994).

Each structure is given as a SMILES string. Where a SMILES comes first, the peptide text is derived from it. [ ]: non-standard residue; d: D form. The star is where a group is joined. Sta = CC(C)C[C@H](N)[C@@H](O)CC(=O)O; Isovaleryl = CC(C)CC(=O)*

In experiment [1] the target is T1, human renin (Homo sapiens, UniProt P00797).
T1 construct: purchased National Institute for Biological Standards, London
T1 sequence (P00797 67-406): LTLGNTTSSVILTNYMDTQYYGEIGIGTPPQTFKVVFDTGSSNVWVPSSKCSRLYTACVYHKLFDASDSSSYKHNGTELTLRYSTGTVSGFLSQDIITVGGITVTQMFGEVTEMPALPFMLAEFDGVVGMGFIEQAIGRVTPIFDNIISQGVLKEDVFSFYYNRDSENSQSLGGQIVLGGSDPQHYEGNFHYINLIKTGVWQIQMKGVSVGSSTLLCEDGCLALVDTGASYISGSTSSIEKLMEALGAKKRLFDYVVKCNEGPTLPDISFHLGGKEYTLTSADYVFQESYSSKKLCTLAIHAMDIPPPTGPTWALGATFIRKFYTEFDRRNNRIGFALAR
Briefly: Human Renin Inhibition in vitro (angiotensin I by radioimmunoassay). It is filed as biochemical. Particulars: pH 7.4, 37° C., two hours, human plasma. Here is the method: Compounds of Formula I were evaluated as inhibitors of human renin in an in vitro assay, as follows: This human renin inhibition test has been previously described in detail [Papaioannou et al., Clinical and Experimental Hypertension, A7(9), 1243-1257 (1985)]. Human renin was obtained from the National Institute for Biological Standards, London. An incubation mixture was prepared containing the following components: in a total volume of 0.25 mL: 100 mM Tris-acetate buffer at pH 7.4, 25×10^-6 Goldblatt units of renin, 0.05 mL of plasma from human volunteers taking oral contraceptives, 6.0 mM Na-EDTA, 2.4 mM phenylmethyl sulfonyl fluoride, 1.5 mM 8-hydroxyquinoline, 0.4 mg/mL bovine serum albumin (BSA), and 0.024 mg/mL neomycin sulfate. This mixture was incubated for two hours at 37° C. in the presence or absence of renin inhibitors. The produced angiotensin I was determined by radioimmunoassay (New England Nuclear kit). Test compounds to be assayed were dissolved in DMSO and diluted with 100 mM Tris-acetate buffer at pH 7.4 containing 0.5% BSA to the appropriate concentration. The final concentration of organic solvent in the reaction mixture was less than 1%. Control incubations at 37° C. were used to correct for effects of organic solvent on renin activity.

Experiment [2] relates to pepsin. Particulars: Umezawa et al, J. Antibiot. 1970; cited from earlier work.
In experiment [3] the test system is hog renin. Particulars: after injection of hog renin into nephrectomized rats; Gross et al, Science 1971; cited from earlier work.
For experiment [4], the system named is cathepsin D. Particulars: Umezawa et al, J. Antibiot. 1970; cited from earlier work.
In experiment [5] the test system is renin. The conditions noted are these: Umezawa et al, J. Antibiot. 1970; cited from earlier work.

One may read the IC50 as the midpoint of a concentration-inhibition curve. Read a low IC50 as greater potency. `CC(C)C[C@H](O)[C@H](O)[C@H](CC1CCCCC1)NC(=O)C(C)CNC(=O)C(Cc1ccccc1)CS(=O)(=O)C(C)(C)C` (stereo partly drawn) [Example 1, N-[3-[[1S,1R*-(cyclohexylmethyl)-2S*,3R*-5-methylhexyl]amino]-2S*-methyl-3-oxopropyl]-α-[[(1,1-dimethylethyl)sulfonyl]methyl]benzenepropanamide] had an IC50 in experiment [1] of 10 nM. That is a double-digit nanomolar value.

The term inhibition denotes the share of the control response that was lost under treatment. Consider `CC(C)C[C@H](O)[C@H](O)[C@H](CC1CCCCC1)NC(=O)C(C)CNC(=O)C(CSC(C)(C)C)Cc1ccccc1` (stereo partly drawn) [Example 2, N-[3-[[1S,1R*-(cyclohexylmethyl)-2S*,3R*-dihydroxy-5-methylhexyl]amino]-2S*-methyl-2-3-oxopropyl]-α-[[(1,1-dimethylethyl)thio]methyl]benzenepropanamide], for which, in experiment [1] (@ 10 nM), testing at 0.01 µM gave an inhibition of 30%.

As to `CC(C)CC(=O)N[C@H](C(=O)N[C@H](C(=O)N[C@@H](CC(C)C)[C@@H](O)CC(=O)N[C@@H](C)C(=O)N[C@@H](CC(C)C)[C@@H](O)CC(=O)O)C(C)C)C(C)C` [pepstatin] (Isovaleryl-VV[Sta]A[Sta]-OH), the inhibitor of pepsin result in experiment [2] is “inhibitor”. In experiment [3], the “blood pressure in vivo” value is “reduce blood pressure”. In experiment [4], the “inhibitor of cathepsin D” value is recorded as “inhibitor”. In addition, the inhibitor of renin result in experiment [5] is recorded as “inhibitor”.
